The target of this experiment is T1, USP19 (Homo sapiens, UniProt O94966).
T1 sequence (O94966 1-1318): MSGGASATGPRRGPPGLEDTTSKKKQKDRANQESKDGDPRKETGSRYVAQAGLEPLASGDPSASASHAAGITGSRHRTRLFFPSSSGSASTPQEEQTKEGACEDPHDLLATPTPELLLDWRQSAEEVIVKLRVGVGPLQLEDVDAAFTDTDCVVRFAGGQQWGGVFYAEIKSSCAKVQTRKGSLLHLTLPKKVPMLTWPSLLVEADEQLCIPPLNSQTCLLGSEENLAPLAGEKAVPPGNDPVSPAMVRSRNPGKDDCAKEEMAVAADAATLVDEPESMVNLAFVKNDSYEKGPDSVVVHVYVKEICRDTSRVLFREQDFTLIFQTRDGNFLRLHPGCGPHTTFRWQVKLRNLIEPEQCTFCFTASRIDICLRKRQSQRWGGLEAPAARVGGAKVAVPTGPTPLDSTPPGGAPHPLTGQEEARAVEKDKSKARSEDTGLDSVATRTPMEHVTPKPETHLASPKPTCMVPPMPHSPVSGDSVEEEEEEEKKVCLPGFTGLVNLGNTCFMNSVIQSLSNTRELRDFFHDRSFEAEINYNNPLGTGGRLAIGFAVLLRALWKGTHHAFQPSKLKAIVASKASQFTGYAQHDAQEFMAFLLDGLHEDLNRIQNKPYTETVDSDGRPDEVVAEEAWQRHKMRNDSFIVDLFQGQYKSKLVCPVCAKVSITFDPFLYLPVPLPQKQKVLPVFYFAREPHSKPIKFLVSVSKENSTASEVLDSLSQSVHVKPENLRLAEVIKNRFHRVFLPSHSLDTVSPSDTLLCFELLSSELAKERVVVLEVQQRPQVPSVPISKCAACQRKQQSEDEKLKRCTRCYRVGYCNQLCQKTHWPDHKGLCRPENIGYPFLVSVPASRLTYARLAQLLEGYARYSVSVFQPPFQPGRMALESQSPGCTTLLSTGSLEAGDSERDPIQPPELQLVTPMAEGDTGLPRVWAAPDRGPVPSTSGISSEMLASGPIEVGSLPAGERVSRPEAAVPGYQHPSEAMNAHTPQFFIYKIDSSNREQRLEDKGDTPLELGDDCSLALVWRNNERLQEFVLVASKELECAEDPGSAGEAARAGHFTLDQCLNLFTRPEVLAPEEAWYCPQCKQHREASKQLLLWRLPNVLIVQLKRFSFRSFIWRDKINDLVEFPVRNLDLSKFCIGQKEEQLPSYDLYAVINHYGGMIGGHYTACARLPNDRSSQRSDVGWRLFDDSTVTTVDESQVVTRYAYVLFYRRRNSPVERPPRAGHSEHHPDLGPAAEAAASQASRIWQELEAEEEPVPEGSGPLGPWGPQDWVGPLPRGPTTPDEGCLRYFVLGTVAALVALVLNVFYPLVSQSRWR
Nature of the experiment: USP19 fluorescence polarisation (FP) homogeneous assay. The experiment is classed as biochemical. Also noted: Full-length USP19 was purchased from Boston Biochem (E-576); purchased Boston Biochem E-576. The note with it: Ubiquitin-Lys-TAMRA substrate, full-length USP19 2.5 nM, average of at least two duplicate experiments. As to the method:
Unless otherwise stated, all other reagents were purchased from Sigma. Enzymatic reactions were conducted in black flat bottom polystyrene 384-well plates (Nunc) and 30 μL total volume. […] Inhibitors were stored as 10 mM DMSO stocks in an inert environment (low humidity, dark, low oxygen, room temperature) using the Storage Pod System and serial dilutions were prepared in buffer just prior to the assay (from 200 μM to 2 μM, 8-18 data point curve). Following incubation at RT for 30 min, the enzymatic reactions were initiated by dispensing the Ub substrate (500 nM, 10 μL). FP was measured every 15 min over a period of 90 min (within the linear range of the assay) using a Synergy 4 plate reader (BioTek) exciting at 530 nm and measuring the amount of parallel and perpendicular light at 575 nm. The FP signal was subsequently normalised to the no compound control.
For the molecule “3-(((S)-10-Hydroxy-7-((2R,3R)-2-phenylpyrrolidine-3-carbonyl)-7-azaspiro[4.5]decan-10-yl)methyl)-6-phenylpyrimidin-4(3H)-one and 3-(((S)-10-Hydroxy-7-((2a3S)-2-phenylpyrrolidine-3-carbonyl)-7-azaspiro[4.5]decan-10-yl)methyl)-6-phenylpyrimidin-4(3H)-one [Example 260]”, the 50% inhibitory concentration (IC50) is below 500 nM.
In the case of `CC(n1cnc(-c2ccccc2)cc1=O)C1(O)CCN(C(=O)C[C@@H](C)c2ccccc2)CC1` (mixture of isomers) [Example 47, 3-((R)-1-(4-Hydroxy-1-((R)-3-phenylbutanoyl)piperidin-4-yl)ethyl)-6-phenylpyrimidin-4(3H)-one and 3-((S)-1-(4-hydroxy-1-((R)-3-phenylbutanoyl)piperidin-4-yl)ethyl)-6-phenylpyrimidin-4(3H)-one] it was 50000 to 250000 nM; in that of `C[C@H](CC1CCCCC1)C(=O)N1CCC(O)(Cn2cnc(-c3ccccc3)cc2=O)C(C)(C)C1` (mixture of isomers) [Example 50, 3-(((R)-1-((R)-3-Cyclohexyl-2-methylpropanoyl)-4-hydroxy-3,3-dimethylpiperidin-4-yl)methyl)-6-phenylpyrimidin-4(3H)-one and 3-(((S)-1-((R)-3-Cyclohexyl-2-methylpropanoyl)-4-hydroxy-3,3-dimethylpiperidin-4-yl)methyl)-6-phenylpyrimidin-4(3H)-one], below 500 nM.
Then `C[C@H](CC1CCCCC1)C(=O)N1CCC(O)(Cn2cnc(-c3ccccc3F)cc2=O)C2(CCC2)C1` (mixture of isomers) [Example 51, 3-(((R)-6-((R)-3-Cyclohexyl-2-methylpropanoyl)-9-hydroxy-6-azaspiro[3.5]nonan-9-yl)methyl)-6-(2-fluorophenyl)pyrimidin-4(3H)-one and 3-(((S)-6-((R)-3-Cyclohexyl-2-methylpropanoyl)-9-hydroxy-6-azaspiro[3.5]nonan-9-yl)methyl)-6-(2-fluorophenyl)pyrimidin-4(3H)-one], with 500 to 5000 nM; and `C[C@H](CC(=O)N1CCC(O)(Cn2cnc(-c3ccccc3)cc2=O)C(C)(C)C1)c1ccccc1` (mixture of isomers) [Example 53, 3-(((S)-4-Hydroxy-3,3-dimethyl-1-((R)-3-phenylbutanoyl)piperidin-4-yl)methyl)-6-phenylpyrimidin-4(3H)-one and 3-(((R)-4-hydroxy-3,3-dimethyl-1-((R)-3-phenylbutanoyl)piperidin-4-yl)methyl)-6-phenylpyrimidin-4(3H)-one], with 500 to 5000 nM; and `C[C@H](CC(=O)N1CCC(O)(Cn2cnc(-c3ccccc3)cc2=O)CC1(C)C)c1ccccc1` (mixture of isomers) [Example 61, 3-(((R)-4-Hydroxy-2,2-dimethyl-1-((R)-3-phenylbutanoyl)piperidin-4-yl)methyl)-6-phenylpyrimidin-4(3H)-one and 3-(((S)-4-Hydroxy-2,2-dimethyl-1-((R)-3-phenylbutanoyl)piperidin-4-yl)methyl)-6-phenylpyrimidin-4(3H)-one], with 50000 to 250000 nM.
Take `CC(C)N(C)C(=O)c1cn(CC2(O)CCN(C(=O)[C@H](C)CC3CCCCC3)CC2(C)C)c(=O)cc1-c1ccccc1` (mixture of isomers) [Example 73, 1-(((R)-1-((R)-3-Cyclohexyl-2-methylpropanoyl)-4-hydroxy-3,3-dimethylpiperidin-4-yl)methyl)-N-isopropyl-N-methyl-6-oxo-4-phenyl-1,6-dihydropyridine-3-carboxamide and 1-(((S)-1-((R)-3-Cyclohexyl-2-methylpropanoyl)-4-hydroxy-3,3-dimethylpiperidin-4-yl)methyl)-N-isopropyl-N-methyl-6-oxo-4-phenyl-1,6-dihydropyridine-3-carboxamide]: the half-inhibitory concentration (IC50) is below 500 nM.
For the molecule `O=C([C@@H]1CNC[C@H]1c1ccccc1)N1CC[C@@](O)(Cn2cnc(-c3ccccc3)cc2=O)C2(CCCC2)C1` (mixture of isomers) [Example 259, 3-(((S)-10-Hydroxy-7-((3S,4R)-4-phenylpyrrolidine-3-carbonyl)-7-azaspiro[4.5]decan-10-yl)methyl)-6-phenylpyrimidin-4(3H)-one and 3-(((S)-10-Hydroxy-7-((3R,4S)-4-phenylpyrrolidine-3-carbonyl)-7-azaspiro[4.5]decan-10-yl)methyl)-6-phenylpyrimidin-4(3H)-one], the IC50 is below 500 nM.
In the case of `CC(CC1CCC1)C(=O)N1CCC(O)(Cn2cc(C(=O)N3CCCCC3)c(-c3ccccc3)cc2=O)CC1` (racemic) [Example 15, (R,S)-1-((3-Cyclobutyl-2-methylpropanoyl)-4-hydroxypiperidin-4-yl)methyl)-4-phenyl-5-(piperidine-1-carbonyl)pyridin-2(1H)-one] it was 5000 to 50000 nM.
Then `CCC(n1cnc(-c2ccccc2)cc1=O)C1(O)CCN(C(=O)[C@H](C)CC2CCCCC2)CC1` (stereo partly drawn) [Example 43, 3-((S)-1-(1-((R)-3-Cyclohexyl-2-methylpropanoyl)-4-hydroxypipendin-4-yl)propyl)-6-phenylpyrimidin-4(3H)-one and 3-((R)-1-(1-((R)-3-cyclohexyl-2-methylpropanoyl)-4-hydroxypipendin-4-yl)propyl)-6-phenylpyrimidin-4(3H)-one], with 5000 to 50000 nM; and `C[C@H](CC1CCCCC1)C(=O)N1CCC(O)(Cn2cnc(-c3ccccc3F)cc2=O)C2(CCCC2)C1` (stereo partly drawn) [Example 119, 3-((7-((R)-3-Cyclohexyl-2-methylpropanoyl)-10-hydroxy-7-azaspiro[4.5]decan-10-yl)methyl)-6-(2-fluorophenyl)pyrimidin-4(3H)-one], with below 500 nM.
In the case of `CC(C)N(C)C(=O)c1cn(C[C@]2(O)CCN(C(=O)[C@H](C)CC3CCCCC3)CC2(C)C)c(=O)cc1-c1ccccc1` [Example 120, 1-(((S)-1-((R)-3-Cyclohexyl-2-methylpropanoyl)-4-hydroxy-3,3-dimethylpiperidin-4-yl)methyl)-N-isopropyl-N-methyl-6-oxo-4-phenyl-1,6-dihydropyridine-3-carboxamide] it was below 500 nM; in that of `C[C@H](CC1CCCCC1)C(=O)N1CC[C@@](O)(Cn2cc(C(=O)N(C)C)c(-c3ccccc3)cc2=O)C(C)(C)C1` [Example 121, 1-(((S)-1-((R)-3-Cyclohexyl-2-methylpropanoyl)-4-hydroxy-3,3-dimethylpiperidin-4-yl)methyl)-N,N-dimethyl-6-oxo-4-phenyl-1,6-dihydropyridine-3-carboxamide], below 500 nM; in that of `C[C@H](CC1CCCCC1)C(=O)N1CC[C@@](O)(Cn2cc(C(=O)N3CCCC3)c(-c3ccccc3)cc2=O)C(C)(C)C1` [Example 123, 1-(((S)-1-((R)-3-Cyclohexyl-2-methylpropanoyl)-4-hydroxy-3,3-dimethylpiperidin-4-yl)methyl)-4-phenyl-5-(pyrrolidine-1-carbonyl)pyridin-2(1H)-one], below 500 nM.
As to `C[C@H](CC1CCCCC1)C(=O)N1CC[C@@](O)(Cn2cc(C(=O)N3CCNCC3)c(-c3ccccc3)cc2=O)C(C)(C)C1` [Example 124, 1-(((S)-1-((R)-3-Cyclohexyl-2-methylpropanoyl)-4-hydroxy-3,3-dimethylpiperidin-4-yl)methyl)-4-phenyl-5-(piperazine-1-carbonyl)pyridin-2(1H)-one], the IC50 is below 500 nM.
As for `C[C@H](CC1CCCCC1)C(=O)N1CCC(O)(Cn2cnc(-c3ccsc3)cc2=O)C(C)(C)C1` (stereo partly shown) [Example 135], the IC50 is below 500 nM.
